Experimental data from PubChem BioAssay AID1963985 (Molecular Pharmacology Branch, DTP, NCI, 2024).

Test system: 252836-082-R-J2-PDC tumor spheroids, viability
Experiment: Anticancer human tumor 252836-082-R-J2-PDC patient-derived head and neck squamous cell carcinoma cell line growth inhibition [PI3K]
Conditions: spheroids with HUVEC and MSC; for IC50: curve of first compound; for viability, T/C: stronger effect = lower value; active = viability on the fitted dose curve at most 10% of control; inactive = the rest
Procedure, shortened: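 Spheroid viability read-out. Co-cultures contained the tumor line plus HUVEC and human MSCs. Each agent was paired with a PI3K inhibitor (inavolisib, alpelisib, duvelisib, copanlisib) across half-log dilutions starting at clinical Cmax, or at 10 microM when Cmax was unknown.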

[1] = second compound 0.0316 µM, first compound 0.0316 µM
[2] = second compound 0.0316 µM, first compound 0.1 µM
[3] = second compound 0.0316 µM, first compound 0.316 µM
[4] = second compound 0.0316 µM, first compound 1 µM
[5] = second compound 0.0316 µM, first compound 3.16 µM
[6] = second compound 0.0316 µM, first compound 10 µM
[7] = second compound 0.1 µM, first compound 0.0316 µM
[8] = second compound 0.1 µM, first compound 0.1 µM
[9] = second compound 0.1 µM, first compound 0.316 µM
[10] = second compound 0.1 µM, first compound 1 µM
[11] = second compound 0.1 µM, first compound 3.16 µM
[12] = second compound 0.1 µM, first compound 10 µM
[13] = second compound 0.316 µM, first compound 0.0316 µM
[14] = second compound 0.316 µM, first compound 0.1 µM
[15] = second compound 0.316 µM, first compound 0.316 µM
[16] = second compound 0.316 µM, first compound 1 µM
[17] = second compound 0.316 µM, first compound 3.16 µM
[18] = second compound 0.316 µM, first compound 10 µM
[19] = second compound 1 µM, first compound 0.0316 µM
[20] = second compound 1 µM, first compound 0.1 µM
[21] = second compound 1 µM, first compound 0.316 µM
[22] = second compound 1 µM, first compound 1 µM
[23] = second compound 1 µM, first compound 3.16 µM
[24] = second compound 1 µM, first compound 10 µM
[25] = second compound 3.16 µM, first compound 0.0316 µM
[26] = second compound 3.16 µM, first compound 0.1 µM
[27] = second compound 3.16 µM, first compound 0.316 µM
[28] = second compound 3.16 µM, first compound 1 µM
[29] = second compound 3.16 µM, first compound 3.16 µM
[30] = second compound 3.16 µM, first compound 10 µM
[31] = second compound 10 µM, first compound 0.0316 µM
[32] = second compound 10 µM, first compound 0.1 µM
[33] = second compound 10 µM, first compound 0.316 µM
[34] = second compound 10 µM, first compound 1 µM
[35] = second compound 10 µM, first compound 3.16 µM
[36] = second compound 10 µM, first compound 10 µM
[37] = second compound 0.0316 µM, first compound 0.00316 µM
[38] = second compound 0.0316 µM, first compound 0.01 µM
[39] = second compound 0.1 µM, first compound 0.00316 µM
[40] = second compound 0.1 µM, first compound 0.01 µM
[41] = second compound 0.316 µM, first compound 0.00316 µM
[42] = second compound 0.316 µM, first compound 0.01 µM
[43] = second compound 1 µM, first compound 0.00316 µM
[44] = second compound 1 µM, first compound 0.01 µM
[45] = second compound 3.16 µM, first compound 0.00316 µM
[46] = second compound 3.16 µM, first compound 0.01 µM
[47] = second compound 10 µM, first compound 0.00316 µM
[48] = second compound 10 µM, first compound 0.01 µM
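Note: spheroids exposed to agents for seven days before readout.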
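Throughout, for viability, T/C: percent of vehicle DMSO control viability so 100% = untreated growth.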

CC(C)NCC(C(=O)N1CCN(c2ncnc3c2C(C)CC3O)CC1)c1ccc(Cl)cc1 (stereo not drawn) + Cc1nc(NC(=O)N2CCCC2C(N)=O)sc1-c1ccnc(C(C)(C)C(F)(F)F)c1
0.784 µM: IC50 (second compound 0.1 µM)
0.977 µM: IC50 (second compound 0.0316 µM)
0.461 µM: IC50 (second compound 1 µM)
inactive: viability, T/C [1] 87.3% | viability, T/C [2] 73.3% | viability, T/C [3] 76.3% | viability, T/C [4] 47.9% | viability, T/C [5] 30.2% | viability, T/C [6] 22.1% | viability, T/C [7] 87.8% | viability, T/C [8] 73.7% | viability, T/C [9] 64% | viability, T/C [10] 47.7% | viability, T/C [11] 29.5% | viability, T/C [12] 19.2% | viability, T/C [13] 70.3% | viability, T/C [14] 67.3% | viability, T/C [15] 68.9% | viability, T/C [16] 44.5% | viability, T/C [17] 31.7% | viability, T/C [18] 21% | viability, T/C [19] 55.6% | viability, T/C [20] 50.3% | viability, T/C [21] 60.1% | viability, T/C [22] 40.2% | viability, T/C [23] 29.5% | viability, T/C [24] 19.1% | viability, T/C [25] 41.3% | viability, T/C [26] 48.1% | viability, T/C [27] 43% | viability, T/C [28] 36.5% | viability, T/C [29] 25.8% | viability, T/C [30] 17.2% | viability, T/C [31] 32.8% | viability, T/C [32] 36.1% | viability, T/C [33] 27.8% | viability, T/C [34] 21.6% | viability, T/C [35] 19.8% | viability, T/C [36] 10.1%
< 0.0316 µM: IC50 (second compound 3.16 µM) | IC50 (second compound 10 µM)
0.834 µM: IC50 (second compound 0.316 µM)

CCN1CCN(Cc2ccc(Nc3ncc(F)c(-c4cc(F)c5nc(C)n(C(C)C)c5c4)n3)nc2)CC1 + Cc1nc(NC(=O)N2CCCC2C(N)=O)sc1-c1ccnc(C(C)(C)C(F)(F)F)c1
inactive: viability, T/C [37] 101% | viability, T/C [38] 94.1% | viability, T/C [1] 80.8% | viability, T/C [2] 80.5% | viability, T/C [3] 91.3% | viability, T/C [4] 87% | viability, T/C [39] 84.2% | viability, T/C [40] 85% | viability, T/C [7] 77.8% | viability, T/C [8] 80.2% | viability, T/C [9] 85.7% | viability, T/C [10] 86.3% | viability, T/C [41] 67.8% | viability, T/C [42] 74.8% | viability, T/C [13] 64.7% | viability, T/C [14] 69.9% | viability, T/C [15] 59% | viability, T/C [16] 68% | viability, T/C [43] 58.3% | viability, T/C [44] 74.9% | viability, T/C [19] 59.4% | viability, T/C [20] 61.9% | viability, T/C [21] 62.5% | viability, T/C [22] 46.4% | viability, T/C [45] 49.1% | viability, T/C [46] 39.4% | viability, T/C [25] 43.5% | viability, T/C [26] 40.2% | viability, T/C [27] 44.2% | viability, T/C [28] 43.1% | viability, T/C [47] 35.4% | viability, T/C [48] 42.1% | viability, T/C [31] 27.5% | viability, T/C [32] 40.1% | viability, T/C [33] 32% | viability, T/C [34] 21.1%
> 1 µM: IC50 (second compound 0.0316 µM) | IC50 (second compound 0.1 µM) | IC50 (second compound 0.316 µM) | IC50 (second compound 1 µM)
< 0.00316 µM: IC50 (second compound 3.16 µM) | IC50 (second compound 10 µM)

Cn1ncc(Cl)c1-c1cc(C(=O)NC(CN)Cc2cccc(F)c2)sc1Cl (stereo not drawn) + Cc1nc(NC(=O)N2CCCC2C(N)=O)sc1-c1ccnc(C(C)(C)C(F)(F)F)c1
active: viability, T/C [36] 7.53%
0.362 µM: IC50 (second compound 0.316 µM)
0.391 µM: IC50 (second compound 0.0316 µM)
0.0522 µM: IC50 (second compound 1 µM)
inactive: viability, T/C [1] 82.8% | viability, T/C [2] 65% | viability, T/C [3] 57.8% | viability, T/C [4] 33.6% | viability, T/C [5] 28.4% | viability, T/C [6] 17.6% | viability, T/C [7] 83.9% | viability, T/C [8] 64% | viability, T/C [9] 67.5% | viability, T/C [10] 41.8% | viability, T/C [11] 27.4% | viability, T/C [12] 12.2% | viability, T/C [13] 67.4% | viability, T/C [14] 61.3% | viability, T/C [15] 52.4% | viability, T/C [16] 36.9% | viability, T/C [17] 29.5% | viability, T/C [18] 11.1% | viability, T/C [19] 52% | viability, T/C [20] 47.4% | viability, T/C [21] 44.6% | viability, T/C [22] 35.8% | viability, T/C [23] 28.6% | viability, T/C [24] 12% | viability, T/C [25] 44.5% | viability, T/C [26] 42.1% | viability, T/C [27] 43.6% | viability, T/C [28] 30.7% | viability, T/C [29] 25.4% | viability, T/C [30] 9.67% | viability, T/C [31] 40.4% | viability, T/C [32] 36.1% | viability, T/C [33] 34.1% | viability, T/C [34] 26.1% | viability, T/C [35] 20.9%
< 0.0316 µM: IC50 (second compound 3.16 µM) | IC50 (second compound 10 µM)
0.657 µM: IC50 (second compound 0.1 µM)

Cn1ncnc1[C@H]1c2n[nH]c(=O)c3cc(F)cc(c23)N[C@@H]1c1ccc(F)cc1 + Cc1nc(NC(=O)N2CCCC2C(N)=O)sc1-c1ccnc(C(C)(C)C(F)(F)F)c1
0.0172 µM: IC50 (second compound 1 µM)
inactive: viability, T/C (second compound 0.0316 µM, first compound 0.000316 µM) 88.5% | viability, T/C (second compound 0.0316 µM, first compound 0.001 µM) 94.1% | viability, T/C [37] 96.9% | viability, T/C [38] 76.2% | viability, T/C [1] 75.2% | viability, T/C [2] 58.5% | viability, T/C (second compound 0.1 µM, first compound 0.000316 µM) 80.2% | viability, T/C (second compound 0.1 µM, first compound 0.001 µM) 71.3% | viability, T/C [39] 83.4% | viability, T/C [40] 65.6% | viability, T/C [7] 78.5% | viability, T/C [8] 58.4% | viability, T/C (second compound 0.316 µM, first compound 0.000316 µM) 62.3% | viability, T/C (second compound 0.316 µM, first compound 0.001 µM) 70.8% | viability, T/C [41] 66.6% | viability, T/C [42] 57.6% | viability, T/C [13] 55.6% | viability, T/C [14] 50.6% | viability, T/C (second compound 1 µM, first compound 0.000316 µM) 58.5% | viability, T/C (second compound 1 µM, first compound 0.001 µM) 59.2% | viability, T/C [43] 53.9% | viability, T/C [44] 61.7% | viability, T/C [19] 40.6% | viability, T/C [20] 32.4% | viability, T/C (second compound 3.16 µM, first compound 0.000316 µM) 42.7% | viability, T/C (second compound 3.16 µM, first compound 0.001 µM) 48.8% | viability, T/C [45] 39% | viability, T/C [46] 44.7% | viability, T/C [25] 40.4% | viability, T/C [26] 23.4% | viability, T/C (second compound 10 µM, first compound 0.000316 µM) 31.8% | viability, T/C (second compound 10 µM, first compound 0.001 µM) 38.5% | viability, T/C [47] 33.6% | viability, T/C [48] 26.5% | viability, T/C [31] 21.9% | viability, T/C [32] 21.6%
> 0.1 µM: IC50 (second compound 0.0316 µM) | IC50 (second compound 0.1 µM) | IC50 (second compound 0.316 µM)
< 0.000316 µM: IC50 (second compound 3.16 µM) | IC50 (second compound 10 µM)
